According to paper PMC10787763, “Two-substrate enzyme engineering using small libraries that combine the substrate preferences from two different variant lineages” (Scientific Reports, 2024):

Biological target: T1, E. coli transketolase (TK), 6M variant scaffold (Escherichia coli, UniProt P27302, H100L/H192P/A282P/I365L/D469T/G506A/R520Q, form not given)
T1 construct: gene tktA; full-length, C-terminal His6 tag, expressed in E. coli from lab plasmid (pQR791 / pQR729), Ni-NTA purified; holo-TK with ThDP and Mg2+; non-natural residue by amber suppression in TK-5C
T1 sequence (P27302 whole entry H100L/H192P/A282P/I365L/D469T/G506A/R520Q, form open): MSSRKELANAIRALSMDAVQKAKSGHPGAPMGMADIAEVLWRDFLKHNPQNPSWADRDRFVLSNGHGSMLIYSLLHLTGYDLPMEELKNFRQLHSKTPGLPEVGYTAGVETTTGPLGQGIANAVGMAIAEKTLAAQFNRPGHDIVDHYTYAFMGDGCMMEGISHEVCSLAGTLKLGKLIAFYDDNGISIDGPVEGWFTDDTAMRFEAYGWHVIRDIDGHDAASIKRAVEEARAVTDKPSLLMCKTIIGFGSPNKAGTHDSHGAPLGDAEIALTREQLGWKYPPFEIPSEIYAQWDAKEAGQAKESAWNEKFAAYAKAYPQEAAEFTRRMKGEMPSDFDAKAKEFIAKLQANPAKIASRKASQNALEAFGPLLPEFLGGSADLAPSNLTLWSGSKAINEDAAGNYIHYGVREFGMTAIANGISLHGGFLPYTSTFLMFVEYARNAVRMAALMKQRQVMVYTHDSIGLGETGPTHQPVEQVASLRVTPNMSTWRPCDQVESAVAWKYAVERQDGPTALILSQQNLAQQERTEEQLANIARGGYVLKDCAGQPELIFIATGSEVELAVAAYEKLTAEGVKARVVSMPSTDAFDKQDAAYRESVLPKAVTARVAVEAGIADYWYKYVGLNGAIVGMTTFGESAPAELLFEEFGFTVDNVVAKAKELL
Assay: initial-rate kinetics by RP-HPLC, Michaelis-Menten fit
Assay type: biochemical
Conditions: TK-5C; residue 385 is non-natural p-cyano-L-phenylalanine; acceptor substrate varied, 50 mM pyruvate as donor, 2.4 mM ThDP, 9 mM MgCl2, 50 mM Tris-HCl pH 7.0, 21 °C; error is SEM
From the text: initial-rate kinetics by RP-HPLC, Michaelis-Menten fit on E. coli transketolase (TK), 6M variant scaffold

O=Cc1cccc(C(=O)O)c1 [3-FBA, 3-formylbenzoic acid]
Km: 95 mM
